These results are taken from US20240324679A1, “METHODS AND DEVICES FOR CONTROLLING THE TEMPERATURE OF A DRUG FOIL SUBSTRATE TO GENERATE AN AEROSOL” (ALEXZA PHARMACEUTICALS, INC., priority 2021, published 2024).

Series [1] in a line: Vaporization of apomorphine HCl film from drug foil substrate, Heat Source 1 (testing electric heating, Device 1). The conditions noted are these: 0.44 mg/cm^2 coating, airflow ~30 L/min. The series is classed as physicochemical. The protocol: Device 1 has an air inlet and air outlet and a 1 F capacitor (Phoenix Gold Titanium series) to be discharged to resistively heat the substrate (<0.2 sec) and facilitate rapid aerosol formation with a cross-foil airflow of ˜ 30 L/min. Calibration for temperature versus applied voltage was determined with a thermocouple spot-welded to the foil surface.
A 12.7×63.5, 0.127 mm 304-stainless steel drug foil substrate attached to Device 1 with connexions to receive electrical power from an electrical source. Devices were actuated with a constant airflow of ˜ 30 L/min. An example is depicted in FIG. 1D.
(§1) […] was coated on 2.27 cm^2 (0.44 mg/cm^2) on the drug foil substrate of Heat Source 1 or 2 and heated to the temperatures specified in the table below.

The nature of series [2]: Vaporization of apomorphine HCl film from drug foil substrate, Heat Source 2 (chemical heat package, Device 2). Type of series: physicochemical. Conditions: 0.44 mg/cm^2 coating, airflow ~30 L/min.
Description: A 100 mm long device such as that in FIG. 1B, the same shape as that of the Adasuve® device, moulded from PermaStat® resin (antistatic material).
A 47.2×47.2×0.38 mm 304-stainless steel drug foil substrate is attached to a chemical heat package connected to Device 2.
In chemical heat package devices, an exothermic thermite reaction from the reactants inside of the heat package rapidly propagated (˜ 0.1 s) and generated heat nearly instantaneously, which vaporized the drug film. The reactants are calibrated to heat the drug foil substrate to a given temperature. Upper and lower housings were welded prior to vaporization. Devices were actuated with a constant airflow of ˜ 30 L/min.
as §1

Where [3] appears, read: Heat Source 1, substrate temp. 260 °C.
[4] abbreviates: Heat Source 1, substrate temp. 290 °C.
Where [5] appears, read: Heat Source 1, substrate temp. 310 °C.
[6] abbreviates: Heat Source 1, substrate temp. 320 °C.
Where [7] appears, read: Heat Source 2, substrate temp. 310 °C.
Setting [8] is: Heat Source 2, substrate temp. 330 °C.

Structures can show the parent of a compound that is named as a salt.

Consider `CN1CCc2cccc3c2[C@H]1Cc1ccc(O)c(O)c1-3` [apomorphine HCl], for which the “% Vaporization” value was determined as 40.57 ± 9.34% in series [1] (setting [3]); 58.03 ± 12.15% in series [1] (setting [4]); 59.69 ± 0.34% in series [1] (setting [5]); 66.14 ± 0.95% in series [1] (setting [6]); 48.32 ± 16.77% in series [2] (setting [7]); 61.58 ± 2.07% in series [2] (setting [8]). Also, the “% Vaporization” value in series [2] (Heat Source 2, substrate temp. 400 °C) is 49.07 ± 1.12%. In addition, the “Aerosol Purity (%)” value in series [1] (setting [3]) is 98.35 ± 0.64%; in series [1] (setting [4]), 96.45 ± 0.93%; in series [1] (setting [5]), 94.92 ± 1.12%; in series [1] (setting [6]), 90.89 ± 0.78%; in series [2] (setting [7]), 91.71 ± 1.62%; in series [2] (setting [8]), 87.51 ± 0.18%.
